Where two headings read alike, the source gives them in different places.
How the values were obtained:
[1] = biological target: T1, Aβ(1-40) (Homo sapiens, UniProt P05067); settings: * = compound only partially soluble at this concentration, cited from earlier work
T1 construct: Aβ(1-40)

[2] = Solubility in water and in ophthalmic carriers; assay type: physicochemical
From the text: Specifically, a mixture of approximately 85% petrolatum and 15% mineral oil is a suitable carrier. […] The petrolatum in this ophthalmic formulation can act as a carrier for a combination of dissolved and suspended Methoxy-X04, by altering the aqueous portions of the eye to accept the compound more readily by adding lipophilic material to the solution of the eye's environment and by altering the interactions of the eye with the compound by shielding it from the aqueous environment.
Hydroxypropyl methylcellulose can act in part as a carrier of microparticles in suspension for a mixture of dissolved and suspended Methoxy-X04. This effect occurs by altering the aqueous portions of the eye to enable them to accept the hydrophobic compounds more readily, by adding lipophilic material to the eye's environment and/or by altering the interactions of the compound with the eye by shielding the hydrophobic compound from the aqueous environment.
X34 (Formula II) is a ligand molecule that is derived from Congo Red by replacing the naphthalene sulfonic acids with salicylic acids and the azo linkage with an ethenyl link. […] At room temperature, X34 is a yellow powder, which fluoresces upon exposure to UV light. The logPoct for X34 is 0.42. […] Preferably, ophthalmic formulations containing X34 (or other hydrophilic compounds of Formula I) have LogD values of between 1 and 3.

[3] = Particle size after the grinding process; assay type: physicochemical; settings: micronized by the grinding process
Procedure: For example, Polysorbate 80 is weighed into a polypropylene bottle, and an initial amount of sterile water for injection, USP, is weighed into the bottle. Next, Methoxy-X04 is weighed and added to the bottle. The current batch weight is determined, and the final amount of sterile water for injection to adjust the formulation to a final batch weight is added. Then, the YTZ grinding media is added to the bottle, and the bottle is placed on a roller mill for a minimum of 12 hours at a setting of 50%.
After the milling process, a polishing filter and Masterflex tubing are connected to the bottom of a Millipore housing assembly, while a high-pressure hose is attached to the top of the Millipore housing. Using a nitrogen pressure gauge, the solution is pushed thorough the housing and the polish filter. For example, the pressure used is between 3 psi and 5 psi. This grinding process yields micronized Methoxy-X04 having a mean particle size of 1.157 μm with 100% of particles smaller than 10 μm and greater than 75% of particles smaller than 5 μm. Thus, those skilled in the art will recognize that this exemplary milling process produces Methoxy-X04 particles that are suitable for either topical or parenteral formulation, without requiring the use of solvents, such as dimethyl sulfoxide, that are incompatible with use in drug formulations.

[4] = test system: Aβ plaques; settings: in vivo animal models and ex vivo human tissue (CR: Aβ aggregations); cited from earlier work
[5] = injected into the tail; ex vivo 2-photon fluorescent microscopy; cited from earlier work
[6] = cited from earlier work
[7] = Octanol-water partition coefficient; assay type: physicochemical; settings: pH 7.4
From the text: Those skilled in the art will recognize that the hydrophobicity and hydrophilicity of a substance can be measured using the octanol-water partition coefficient (“Poct” or “Kow”), for compounds whose solubility is not altered by the pH and ionic characteristic of the solute, or LogD value, for compounds whose solubility is altered by the pH and ionic characteristic of the solute. LogD is the logarithm of the distribution coefficient, which is the ratio of the sum of the concentrations of all species of a compound in octanol to the sum of the concentrations of all species of the compound in water.
In these contexts, hydrophobicity is related to factors such as absorption, bioavailabity, hydrophobic drug-receptor interactions, metabolism, and/or toxicity. As used herein, the logPoct is synonymous to logKow, and both measurements are used interchangeably herein. Likewise, logPoct is a functionally equivalent measure to LogD; both values reflect the degree of solubility of a given compound.

[8] = pH 7.4; cited from earlier work
[9] = given as Inact, tested at 10 μm

T1 sequence (P05067 672-711 limits assumed): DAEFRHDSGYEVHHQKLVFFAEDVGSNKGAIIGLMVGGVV

For `O=C(O)c1cccc(/C=C/c2ccc(/C=C/c3cccc(C(=O)O)c3)cc2)c1` [X:E:B30], the Ki ([1]; [3H]CG binding to Aβ(1-40)) is listed as 135 nM.
In the case of `COc1ccc(/C=C/c2ccc(/C=C/c3ccc(OC)cc3)cc2)cc1` [X:E:B04 bis(4-methoxy)], the Ki [1, 9] is given as > 10000 nM.
In the case of `Oc1ccc(/C=C/c2ccc(/C=C/c3ccc(O)cc3)c(O)c2)cc1` [2′-HO-X:E:B04], the Ki ([1]; [3H]CG binding to Aβ(1-40)) is given as 9 nM.
In the case of `COc1ccc(/C=C/c2ccc(/C=C/c3ccc(OC)c(C(=O)O)c3)cc2)cc1C(=O)O` [X:E:B34 bis(4-methoxy)], the Ki ([1]; [3H]CG binding to Aβ(1-40)) is given as 47 nM.
For `COc1ccc(/C=C/c2ccc(/C=C/c3ccc(OC)cc3)c(OC)c2)cc1` [2′-CH3O-X:E:B04 bis(4-methoxy)], the Ki [1, 9] is listed as > 10000 nM.
In the case of `Oc1ccc(/C=C/c2ccc(/C=C/c3ccc(O)cc3)cc2)cc1` [X:E:B04], the Ki ([1]; [3H]CG binding to Aβ(1-40)) is listed as 3100 nM.
In the case of `COC(=O)c1cc(/C=C/c2ccc(/C=C/c3ccc(O)c(C(=O)OC)c3)cc2)ccc1O` [X:E:B34 dimethylester], the Ki ([1]; [3H]CG binding to Aβ(1-40)) is listed as 119 nM.
With `COc1cc(/C=C/c2ccc(O)cc2)ccc1/C=C/c1ccc(O)cc1` [2-CH3O-X:E:B04] the solubility in water [2] was “insoluble”, the “state in carrier at 10 mg/gm” value ([2]; 10 mg/gm of carrier, petrolatum and mineral oil) was “remains primarily in suspension” and the “state in carrier at 0.1%” value ([2]; 0.1% (1 mg per gm carrier), aqueous formulation with hydroxypropyl methylcellulose) was “remains in solution”. The “state in carrier at 0.1%” value ([2]; 0.1% (1 mg per gm of carrier), about 85% petrolatum and 15% mineral oil) was “remains in solution”, the mean particle size [3] was 1.157 μm and the “particles smaller than 5 μm” value [3] was “greater than 75%”. The “particles smaller than 10 μm” value [3] was 100%, the Ki ([1]; [3H]CG binding to Aβ(1-40)) was 27 nM and the “binding to Aβ plaques / aggregations” value [4] was “selectively binds to Aβ plaques”. The “detection in the lens” value [5] was “could be detected in the supranuclear region of the lens” and the “Oral rat LD50” value [6] was ~15000 mg/kg.
In the case of `O=C(O)c1cc(/N=N/c2ccc(-c3ccc(/N=N/c4ccc(O)c(C(=O)O)c4)cc3)cc2)ccc1O` [CG, Chrysamine G], the “Poct of CG relative to CR” value [7] is listed as ~100 fold, the logPoct [8] is listed as 1.8 and the “octanol-water partition coefficient (Poct)” value [8] is listed as 60.
In the case of `O=C(O)c1cc(/C=C/c2ccc(/C=C/c3ccc(O)c(C(=O)O)c3)cc2)ccc1O` [X:E:B34 (X-34)], the solubility in water [2] is given as “moderately soluble”, the “state in carrier at 0.1%” value ([2]; 0.1% of X34 (1 mg active per gm of carrier)) is given as “appears to remain in solution” and the Ki ([1]; [3H]CG binding to Aβ(1-40)) is given as 18 nM. For the same compound, the “binding to Aβ plaques / aggregations” value [4] was “selectively binds to β-amyloid plaques” and the “Oral rat LD50” value [6] was ~15000 mg/kg.
In the case of `COc1ccc(/C=C/c2ccc(/C=C/c3ccc(OC)cc3)c(O)c2)cc1` [2′-HO-X:E:B04bis(4-methoxy)], the Ki [1, 9] is listed as > 10000 nM.
In the case of `COC(=O)c1cc(/C=C/c2ccc(/C=C/c3ccc(OC)c(C(=O)OC)c3)cc2)ccc1OC` [X:E:B34 bis(4-methoxy) dimethyl ester], the Ki [1, 9] is listed as > 10000 nM.
In the case of `COC(=O)c1cccc(/C=C/c2ccc(/C=C/c3cccc(C(=O)OC)c3)cc2)c1` [X:E:B30 dimethylester], the Ki [1, 9] is given as > 10000 nM.
For `Nc1c(/N=N/c2ccc(-c3ccc(/N=N/c4cc(S(=O)(=O)O)c5ccccc5c4N)cc3)cc2)cc(S(=O)(=O)O)c2ccccc12` [CR, Congo Red], the “binding to Aβ plaques / aggregations” value [4] is listed as “selectively binds to Aβ aggregations with high affinity”, the logPoct [8] is listed as 0.18 and the “octanol-water partition coefficient (Poct)” value [8] is listed as 0.7.
